Paper PMC5513444, “The synthesis and evaluation of triazolopyrimidines as anti-tubercular agents” (Bioorganic & Medicinal Chemistry, 2017)
Values after ≈ are worked out from the molar mass of the structure shown.

Legend:
[1] = tested on: M. tuberculosis H37Rv; experiment: MIC90 against M. tuberculosis in liquid medium; type: cell-based, Mycobacterium tuberculosis; settings: liquid medium 7H9-Tw-OADC, aerobic, 5 days, average ± SD of two independent experiments; for MIC90: Mycobacterium tuberculosis, H37RV, 120 h, read-out: MIC (MIC90, minimum concentration required to inhibit growth of M. tuberculosis by 90%)
[2] = tested on: HepG2 cells; experiment: Cytotoxicity against HepG2 cell line (CellTiter-Glo); type: cell-based; settings: for Selectivity index (SI) = IC50/MIC90: HepG2 IC50 / M. tuberculosis MIC90; for IC50: Homo sapiens, 48 h, HepG2, 2 days incubation, read-out: IC50 (concentration required to reduce the viability of HepG2 cells by 50%)

Compound | MIC90 [1] | MIC (MIC90, minimum concentration required to inhibit growth of M. tuberculosis by 90%) [1] | Selectivity index (SI) = IC50/MIC90 [2] | IC50 [2] | melting point
COc1ccc(CCNc2cc(-c3ccccc3)nc3ncnn23)cc1 [Compound 1, N-(4-methoxyphenethyl)-5-phenyl-[1,2,4]triazolo[1,5-a]pyrimidin-7-amine] | 3.1 µM (≈ 1.07 µg/mL) | 3.1 ± 1.3 µM | >32 | > 100 µM | –
COc1ccc(CCNc2cc(-c3ccc(OC)cc3)nc3ncnn23)cc1 [Compound 7, N-(4-Methoxyphenethyl)-5-(4-methoxyphenyl)-[1,2,4]triazolo[1,5-a]pyrimidin-7-amine] | > 20 µM | – | – | > 100 µM | 130 to 131 °C
COc1ccc(CCNc2cc(-c3ccccc3OC)nc3ncnn23)cc1 [Compound 8, N-(4-Methoxyphenethyl)-5-(2-methoxyphenyl)-[1,2,4]triazolo[1,5-a]pyrimidin-7-amine] | > 20 µM | – | – | 87 µM | 148 to 149 °C
COc1ccc(CCNc2cc(-c3ccc(C)cc3)nc3ncnn23)cc1 [Compound 9, N-(4-Methoxyphenethyl)-5-(p-tolyl)-[1,2,4]triazolo[1,5-a]pyrimidin-7-amine] | > 20 µM | – | – | 37 µM | 155 to 156 °C
CCc1ccc(-c2cc(NCCc3ccc(OC)cc3)n3ncnc3n2)cc1 [Compound 10, 5-(4-Ethylphenyl)-N-(4-methoxyphenethyl)-[1,2,4]triazolo[1,5-a]pyrimidin-7-amine] | > 20 µM | – | – | > 100 µM | –
COc1ccc(CCNc2cc(-c3ccc(Cl)cc3)nc3ncnn23)cc1 [Compound 11, 5-(4-Chlorophenyl)-N-(4-methoxyphenethyl)-[1,2,4]triazolo[1,5-a]pyrimidin-7-amine] | > 20 µM | – | – | 65 µM | 178 to 180 °C
COc1ccc(CCNc2cc(-c3ccccc3Cl)nc3ncnn23)cc1 [Compound 12, 5-(2-Chlorophenyl)-N-(4-methoxyphenethyl)-[1,2,4]triazolo[1,5-a]pyrimidin-7-amine] | > 20 µM | – | – | > 100 µM | –
COc1ccc(CCNc2cc(-c3ccc(F)cc3)nc3ncnn23)cc1 [Compound 13, 5-(4-Fluorophenyl)-N-(4-methoxyphenethyl)-[1,2,4]triazolo[1,5-a]pyrimidin-7-amine] | 4.4 ± 2 µM (≈ 1.6 µg/mL) | – | – | 89 µM | 153 to 155 °C
COc1ccc(CCNc2cc(-c3ccccc3F)nc3ncnn23)cc1 [Compound 14, 5-(2-Fluorophenyl)-N-(4-methoxyphenethyl)-[1,2,4]triazolo[1,5-a]pyrimidin-7-amine] | 3 ± 0.21 µM (≈ 1.09 µg/mL) | – | >30 | > 100 µM | 153 to 155 °C
COc1ccc(CCNc2cc(-c3ccc(C(F)(F)F)cc3)nc3ncnn23)cc1 [Compound 15, N-(4-Methoxyphenethyl)-5-(4-(trifluoromethyl)phenyl)-[1,2,4]triazolo[1,5-a]pyrimidin-7-amine] | > 20 µM | – | – | > 100 µM | 191 to 193 °C
COc1ccc(CCNc2cc(-c3cccnc3)nc3ncnn23)cc1 [Compound 17, N-(4-Methoxyphenethyl)-5-(pyridin-3-yl)-[1,2,4]triazolo[1,5-a]pyrimidin-7-amine] | > 20 µM | – | – | > 100 µM | 152 to 153 °C
COc1ccc(CCNc2cc(-c3ccncc3)nc3ncnn23)cc1 [Compound 18, N-(4-Methoxyphenethyl)-5-(pyridin-4-yl)-[1,2,4]triazolo[1,5-a]pyrimidin-7-amine] | > 20 µM | – | – | 69 µM | 217 to 219 °C
COc1ccc(CCNc2cc(Cc3ccccc3)nc3ncnn23)cc1 [Compound 19, 5-Benzyl-N-(4-methoxyphenethyl)-[1,2,4]triazolo[1,5-a]pyrimidin-7-amine] | > 20 µM | – | – | 57 µM | 119 to 121 °C
COc1ccc(CCNc2cc(C)nc3ncnn23)cc1 [Compound 20, N-(4-Methoxyphenethyl)-5-methyl-[1,2,4]triazolo[1,5-a]pyrimidin-7-amine] | > 20 µM | – | – | > 100 µM | 129 to 130 °C
CCc1cc(NCCc2ccc(OC)cc2)n2ncnc2n1 [Compound 21, 5-ethyl-N-(4-methoxyphenethyl)-[1,2,4]triazolo[1,5-a]pyrimidin-7-amine] | > 20 µM | – | – | > 100 µM | 70 to 72 °C
COc1ccc(CCNc2cc(C3CC3)nc3ncnn23)cc1 [Compound 22] | 5.8 ± 1.6 µM (≈ 1.79 µg/mL) | – | >17 | > 100 µM | –
COc1ccc(CCNc2cc(C3CCC3)nc3ncnn23)cc1 [Compound 23, 5-Cyclobutyl-N-(4-methoxyphenethyl)-[1,2,4]triazolo[1,5-a]pyrimidin-7-amine] | 2.9 ± 0.71 µM (≈ 0.938 µg/mL) | – | >34 | > 100 µM | 99 to 100 °C
COc1ccc(CCNc2cc(C3CCCC3)nc3ncnn23)cc1 [Compound 24, 5-Cyclopentyl-N-(4-methoxyphenethyl)-[1,2,4]triazolo[1,5-a]pyrimidin-7-amine] | 5.5 ± 0.07 µM (≈ 1.86 µg/mL) | – | 17 | 95 µM | 99 to 100 °C

Compound | MIC90 [1] | MIC (MIC90, minimum concentration required to inhibit growth of M. tuberculosis by 90%) [1] | Selectivity index (SI) = IC50/MIC90 [2] | IC50 [2] | melting point
COc1ccc(CCNc2cc(C3CCCCC3)nc3ncnn23)cc1 [Compound 25, 5-Cyclohexyl-N-(4-methoxyphenethyl)-[1,2,4]triazolo[1,5-a]pyrimidin-7-amine] | > 20 µM | – | – | 47 µM | 193 to 194 °C
c1ccc(-c2ccn3ncnc3n2)cc1 [Compound 27, 5-Phenyl-[1,2,4]triazolo[1,5-a]pyrimidine] | > 20 µM | – | – | > 20 µM | 179 to 181 °C
Nc1cc(-c2ccccc2)nc2ncnn12 [Compound 28, 5-Phenyl-[1,2,4]triazolo[1,5-a]pyrimidin-7-amine] | > 20 µM | – | – | > 20 µM | 302 to 304 °C
CNc1cc(-c2ccccc2)nc2ncnn12 [Compound 29, N-Methyl-5-phenyl-[1,2,4]triazolo[1,5-a]pyrimidin-7-amine] | > 20 µM | – | – | > 20 µM | 200 to 202 °C
CCNc1cc(-c2ccccc2)nc2ncnn12 [Compound 30, N-Ethyl-5-phenyl-[1,2,4]triazolo[1,5-a]pyrimidin-7-amine] | > 20 µM | – | – | 37 µM | 170 to 172 °C
CCCNc1cc(-c2ccccc2)nc2ncnn12 [Compound 31, 5-Phenyl-N-propyl-[1,2,4]triazolo[1,5-a]pyrimidin-7-amine] | > 20 µM | – | – | 94 µM | 139 to 140 °C
CCCCNc1cc(-c2ccccc2)nc2ncnn12 [Compound 32, N-Butyl-5-phenyl-[1,2,4]triazolo[1,5-a]pyrimidin-7-amine] | > 20 µM | – | – | 98 µM | 125 to 126 °C
COCCNc1cc(-c2ccccc2)nc2ncnn12 [Compound 33, N-(2-Methoxyethyl)-5-phenyl-[1,2,4]triazolo[1,5-a]pyrimidin-7-amine] | > 20 µM | – | – | > 100 µM | 116 to 118 °C
c1ccc(-c2cc(NC3CC3)n3ncnc3n2)cc1 [Compound 34, N-Cyclopropyl-5-phenyl-[1,2,4]triazolo[1,5-a]pyrimidin-7-amine] | > 20 µM | – | – | > 100 µM | 193 to 195 °C
c1ccc(-c2cc(NC3CCC3)n3ncnc3n2)cc1 [Compound 35, N-Cyclobutyl-5-phenyl-[1,2,4]triazolo[1,5-a]pyrimidin-7-amine] | > 20 µM | – | – | 57 µM | 193 to 194 °C
c1ccc(-c2cc(NCCC3CCCCC3)n3ncnc3n2)cc1 [Compound 36, N-(2-Cyclohexylethyl)-5-phenyl-[1,2,4]triazolo[1,5-a]pyrimidin-7-amine] | 17 ± 2.1 µM (≈ 5.46 µg/mL) | – | >6 | > 100 µM | 168 to 169 °C
COc1ccc(Nc2cc(-c3ccccc3)nc3ncnn23)cc1 [Compound 37, N-(4-Methoxyphenyl)-5-phenyl-[1,2,4]triazolo[1,5-a]pyrimidin-7-amine] | > 20 µM | – | – | 49 µM | 200 to 202 °C
COc1ccc(CNc2cc(-c3ccccc3)nc3ncnn23)cc1 [Compound 38, N-(4-Methoxybenzyl)-5-phenyl-[1,2,4]triazolo[1,5-a]pyrimidin-7-amine] | > 20 µM | – | – | 43 µM | 162 to 163 °C
FC(F)(F)c1ccc(CCNc2cc(-c3ccccn3)nc3ncnn23)cc1 [Compound 58, 5-(Pyridin-2-yl)-N-(4-(trifluoromethyl)phenethyl)-[1,2,4]triazolo[1,5-a]pyrimidin-7-amine] | 0.98 ± 0.4 µM (≈ 0.377 µg/mL) | – | >119 | > 100 µM | –
Clc1ccc(CCNc2cc(-c3ccccn3)nc3ncnn23)cc1 [Compound 60, N-(4-Chlorophenethyl)-5-(pyridin-2-yl)-[1,2,4]triazolo[1,5-a]pyrimidin-7-amine] | 0.76 ± 0.25 µM (≈ 0.267 µg/mL) | – | >135 | > 100 µM | –
COc1ccc(C2CCCN(c3cc(-c4ccccn4)nc4ncnn34)C2)cc1 (stereo not shown) [Compound 63, 7-(3-(4-Methoxyphenyl)piperidin-1-yl)-5-(pyridin-2-yl)-[1,2,4]triazolo[1,5-a]pyrimidine] | > 20 µM | – | – | 16 µM | –
COc1ccc(C2CN(c3cc(-c4ccccn4)nc4ncnn34)CCO2)cc1 (stereo not shown) [Compound 64, 2-(4-Methoxyphenyl)-4-(5-(pyridin-2-yl)-[1,2,4]triazolo[1,5-a]pyrimidin-7-yl)morpholine] | > 20 µM | – | – | 50 µM | –
